This is an account of results in patent US20200164078A1, “APPLICABLE CHEMICAL COMPOSITION COMPRISING AN AGENT CONJUGATED TO A HYDROPHOBIC MOIETY AND A CARRIER” (TECHNISCHE UNIVERSITEIT EINDHOVEN, priority 2017, published 2020).

Entries after “also recorded” stand apart in the source; their conditions may differ.

The conditions of series [1]: cited from earlier work.
Series [2] is described as follows: Release from 10 wt % bifunctional UPy-PEG10k hydrogel into PBS. The class given is physicochemical. Here is the method:
The UPy-PEG10k liquid carrier composition was prepared by dissolving the UPy-PEG10k powder in PBS at elevated pH by stirring at 70° C. for 1 h using a magnetic stirrer (e.g. 10 mg in 90 μl PBS pH 11.7 for a 10 wt % hydrogel). Afterwards the viscous solution was cooled to RT with a resulting pH of approximately 9.0. […] The obtained composition is a liquid composition at this pH.
100 μL of the solutions were transferred to Millicell hanging cell culture inserts (PIEP12R48/MCEP24H48) and immediately placed in a 24-well plate with 600 μL PBS per well. Contact with the neutral PBS through the membrane of the insert results in gelation of the liquid carrier, forming the hydrogel. At set time-points the PBS was refreshed and the removed PBS was analyzed for MMC or MPC content. Analysis was performed by measuring UV absorption and converted to concentration via predetermined standard curves. […] […]. Release of MPC can be correlated to the erosion of the hydrogel. The initial goal to couple cholesterol to MMC to slow down the release from the hydrogel is accomplished hereby.

Another series has as its system CC531 cells. Conditions: approximately 24 hour incubation; for Efficacy: MTT; for EC50: global sigmoidal fit of three assays, n=8, ±SD.
Series [3] is described as follows: Stability measurements by UV absorption in PBS. The note with it: 200 mg/L, day 0-13.

Method for CC531 cells: After approximately 24 hour incubation in the cell incubator, 25 μL of freshly prepared MTT solution (5 mg/mL in PBS, filtered through 0.2 μm filter) was added to the wells and incubated for 2 hours. The medium was then completely removed and replaced with 125 μL 0.04 M HCl in isopropanol and incubated for 1 hour. After gently mixing, 100 μl of the isopropanol solution was transferred to a Costar EIA/RIA 96 transparent flat bottom wells plate. The absorbance was measured at 570 nm with 650 nm as reference. Absorbance of MTT was read out on a Tecan Saffire 2 plate reader and Tecan Spark 10M plate reader. Values were normalized to untreated cells. The complete assay was performed three times for CC531 cells. All data sets were used together to fit a global sigmoidal dose response curve with a shared slope and center, giving one EC50 per cell line. A concatenate fit was plotted through the MTT results for visualization. […] Every experiment n=8, ±SD.

For `CC(C)CCC[C@@H](C)[C@H]1CC[C@H]2[C@@H]3CC=C4C[C@@H](O)CC[C@]4(C)[C@H]3CC[C@]12C` [Cholesterol], the Water solubility result in series [1] is “Less than 0.000095 mg/mL)”.
On to `COc1cccc2c1C(=O)c1c(O)c3c(c(O)c1C2=O)C[C@@](O)(C(C)=O)C[C@@H]3O[C@H]1C[C@H](N)[C@H](O)[C@H](C)O1` [Daunorubicin], for which the Water solubility in series [1] is 39 µg/mL.
For `COc1cccc2c1C(=O)c1c(O)c3c(c(O)c1C2=O)C[C@@](O)(C(=O)CO)C[C@@H]3O[C@H]1C[C@H](N)[C@H](O)[C@H](C)O1` [Doxorubicin], in series [1], the Water solubility was 1180 µg/mL.
For `Nc1ccn([C@@H]2O[C@H](CO)[C@@H](O)C2(F)F)c(=O)n1` [Gemcitabine], in series [1], the Water solubility is 51300 µg/mL.
As for `CO[C@@]12[C@H](COC(N)=O)C3=C(C(=O)C(C)=C(N)C3=O)N1C[C@@H]1N[C@@H]12` [MMC, Mitomycin C], the “Release (%)” value was 38.93% in series [2] (0.3 mM in gel, time 0.05 day); 69.58% in series [2] (0.3 mM in gel, time 0.21 day); 86.44% in series [2] (0.3 mM in gel, time 1.00 day); 34.09% in series [2] (3 mM in gel, time 0.06 day); 58.33% in series [2] (3 mM in gel, time 0.17 day); 79.92% in series [2] (3 mM in gel, time 0.38 day). The “Release (%)” value was found to be 95.83% in series [2] (3 mM in gel, time 1.00 day) and 102.65% in series [2] (3 mM in gel, time 2.00 day). Besides, in series [2] (10 wt % UPy-PEG10k hydrogel, diffusion kinetics), the “Time of release from the hydrogel” value is recorded as “approximately 24 hours”. In addition, the Efficacy result in the series on CC531 cells is given as “approximately 100%”. Also, in the series with CC531 cells, the EC50 is 19.6 ± 3.2 µM. Besides, the “Stability (UV absorption spectra)” value in series [3] (pH 6.5, 37° C.) is reported as “unstable; also recorded: degrades”; in series [3] (pH 7.4, 4° C.), “stable”; in series [3] (pH 7.4, 37° C.) it was “stable”.
Consider Mitomycin-PEG24-Cholesterol [MPC], for which, in the series on CC531 cells, the Efficacy entry is given as “approximately 100%” and a half-maximal response (EC50) required 3.8 ± 1.1 µM.
